Publication PMC6946680, “Modulation of brain cation-Cl^− cotransport via the SPAK kinase inhibitor ZT-1a” (Nature Communications, 2020)
Several values for one entry are separate records, joined by “and”; a condition that tells them apart may be missing. Identical values can stand only once.

Key:
HEK-293 cells = test: 86Rb+ uptake assay in empty-vector-transfected HEK-293 cells; format: cell-based, human; design: key: 86Rb+ uptake in CPM per mg protein; settings: Empty V + 1a (10 µM), replicates
Description: Thirty-six hours post transfection, cells were exposed for 30 min to either control isotonic conditions or hypotonic low [Cl^−] conditions (to activate the SPAK/OSR1 pathway), and then treated for an additional 30 min in the same conditions with the indicated ZT-1a concentrations in the presence of 1 mM ouabain and 0.1 mM bumetanide. Ten-minute ^86Rb^+ uptake values were quantified by scintillation counting, normalized per mg protein for each condition, and plotted for both isotonic and hypotonic conditions. ***p < 0.001; **p < 0.01; *p < 0.05; ns—nonsignificant [by one-way ANOVA with post hoc testing (n = 6, error bars represent the mean ± SEM)]. b ^86Rb^+ uptake assays in the presence of ZT-1a measure transport activity of NKCC1. […] Thirty-six hours post transfection, cells were exposed for 30 min to either control isotonic conditions or hypotonic low [Cl^−] conditions (to activate the SPAK/OSR1 pathway), and then treated in the same conditions for an additional 30 min with 10 µM ZT-1a or 0.1 mM bumetanide (Bum) in the presence of 1 mM ouabain (Na^+/K^+-ATPase inhibitor). ^86Rb^+ uptake was allowed to proceed for 10 min and was then quantified by scintillation counting. ^86Rb^+ uptake CPMs were normalized per mg protein and plotted for both isotonic and hypotonic conditions. […] Thirty-six hours post transfection, cells were exposed for 30 min to either control isotonic conditions or hypotonic low [Cl^−] conditions (to activate the SPAK/OSR1 pathway), and then treated for an additional 30 min in the same conditions with the indicated ZT-1a concentrations in the presence of 1 mM ouabain. Ten-minute ^86Rb^+ uptake values were quantified by scintillation counting, normalized per mg protein for each condition, and plotted for both isotonic and hypotonic conditions. ***p < 0.001; **p < 0.01; *p < 0.05; ns—nonsignificant [by one-way ANOVA with post hoc testing (n = 6, error bars represent the mean ± SEM)].
This stimulating medium was then removed and replaced with isotonic medium containing inhibitors plus 2 µCi/ml ^86Rb^+. After incubation for 10 min at 37 °C, cells were rapidly washed three times with the respective ice-cold nonradioactive medium. Washed cells were lysed in 300 µl of ice-cold lysis buffer and ^86Rb^+ uptake was quantitated by liquid scintillation counting (PerkinElmer).

SPAK phosphorylation = test: Pharmacodynamic study, SPAK phosphorylation in brain of naive mice; format: in vivo, mouse; settings: Fig S8a (brain)
Description: To define ZT-1a efficacy in naive mice in vivo, we examined phosphorylation of SPAK, NKCC1, and NCC in kidney, and phosphorylation of SPAK, NKCC1, and KCC3 in brain, after intraperitoneal (i.p.) administration of either ZT-1a (10, 30, 50, and 100 mg/kg) or Closantel (50 mg/kg as a reference). […]
5. Pharmacodynamic (PD) study
Male C57BL/6j wild-type mice (6 weeks old, Charles River Laboratories Edinburgh UK) were treated with ZT-1a (in DMSO, Sigma) by subcutaneous injection at doses of 0, 3, 10, 30, 50 and 100 mg/kg. 50 mg/kg Closantel was administered as a comparative control. Vehicle control mice were treated with an equal volume of DMSO solution. One hour after administration, mice were sacrificed by cervical dislocation, and kidney and brain tissues were rapidly dissected and snap-frozen in liquid nitrogen. Age- […]
free conditions at the University of Dundee (UK) as described in our recent study1. Animal experiments and breeding were approved by the University of Dundee ethical committee and performed under a […]
Policy on the Care, Welfare and Treatment of Animals, and regulations set by the University of Dundee and the U.K. Home Office. […]
Brain and kidney tissues were collected at 60 min post injection, and proteins subjected to immunoblot were probed with antibodies specific for phosphorylated forms of SPAK,

[1] = biological target: panel of 140 recombinant kinases; format: biochemical
Description: (§1) Supplementary Table 2. ZT-1a kinase profiling data6.
(§2) ZT-1a was tested at 10 and 1 µM against a panel of 140 recombinant kinases in an enzymatic
(§3) activity-based assay performed by the International Centre for Kinase Profiling in the MRC
(§4) Protein Phosphorylation and Ubiquitylation Unit. Values represent % residual kinase activity

[2] = system: mouse model of ischemic stroke (tMCAO); test: Adhesive-removal test after tMCAO; format: in vivo; settings: for Adhesive removal time: Fig 7c, individual mice #1-#7
SPAK pSer373 = test: Immunoblot of SPAK/OSR1 p-Ser373/Ser325 in HEK-293 cells; format: cell-based, human; settings: for pSPAK/SPAK band intensity ratio: single replicates
C57BL/6J mice = test: Kaplan-Meier survival of naive and ischemic stroke mice at 25 mg/kg; format: in vivo, mouse; settings: for mortality in naive mice: 0-7 days, n = 3; for Days elapsed: Fig S12, single mice
Description: We compared the neuroprotective efficacy of Closantel with that of the pan-WNK-kinase inhibitor WNK463. […] Moreover, toxicity of Closantel and ZT-1a at 25 mg/kg in naive and ischemic stroke mice was reflected in Kaplan–Meier survival curves (Supplementary Fig. 12).
Supplemental Fig. 12 Kaplan-Meier survival curve of naïve and ischemic stroke mice treated with […]
Normal naïve C57BL/6J mice, or mice after tMCAO randomly received Closantel or ZT-1a treatment […]
was monitored for 0-7 days post-treatment. No mortality was detected in the naïve mice treated with Closantel or ZT-1a. However, all ischemic stroke mice treated with Closantel died within 2 days, with a […]
median survival of 1 day. […]
days). n = 3 per group (naïve+Closantel or naive+ZT-1a), n = 6 per group (tMCAO+vehicle or tMCAO+Closantel or tMCAO+ZT-1a), *p < 0.05, Log-rank test.

[3] = system: CSF secretion by choroid plexus epithelium; test: Rate of CSF production after IVH with intracerebroventricular drug; format: in vivo; settings: rat; ZT-1a treatment for 48 h at 10 µM
AMPK (hum) = test: Kinase profiling panel; format: biochemical, human
Description: as §1, §2, §3, §4

[4] = Immunoblot of KCC site 1 phosphorylation (KCC3 Thr991) in HEK-293 cells transfected with FLAG-KCC3; format: cell-based, human
[5] = Hypotonic low Cl, 1 uM, single replicates
[6] = Hypotonic low Cl, 3 uM, single replicates
[7] = Hypotonic low Cl, 10 uM, single replicates
[8] = Isotonic control, 1 uM, single replicates (Fig 2 source data)
[9] = Isotonic control, 3 uM, single replicates
[10] = Isotonic control, 10 uM, single replicates

SMILES: Cc1cc(C(C#N)c2ccc(Cl)cc2)c(Cl)cc1NC(=O)c1cc(Cl)ccc1O (stereo not shown) [ZT-1a, 5-chloro-N-(5-chloro-4-((4-chlorophenyl)(cyano)methyl)-2-methylphenyl)-2-hydroxybenzamide]
- 86Rb+ uptake (HEK-293 cells; Fig 3a, Hypotonic low Cl-, ouabain + bumetanide): 508.8 and 600.6 and 529.6 and 455.1 and 564.1 and 478.5
- 86Rb+ uptake (HEK-293 cells; Fig 3a, Isotonic control, ouabain + bumetanide): 1279.7 and 1082.2 and 1111.5 and 1436.1 and 1321.4 and 1109.8
- 86Rb+ uptake (HEK-293 cells; Fig 3b, Hypotonic low Cl-, ouabain): 1181.7 and 899.6 and 1029.4 and 1120.4 and 1269.1 and 946.3
- 86Rb+ uptake (HEK-293 cells; Fig 3b, Isotonic control, ouabain): 905.2 and 735.8 and 874.1 and 801.5 and 957.4 and 886.4
- pSer373 / SPAK (SPAK phosphorylation; 10 mg/kg): 0.64 and 0.68 and 0.52 and 0.61
- pSer373 / SPAK (SPAK phosphorylation; 30 mg/kg): 0.55 and 0.6 and 0.56 and 0.52
- pSer373 / SPAK (SPAK phosphorylation; 50 mg/kg): 0.56 and 0.65 and 0.61 and 0.53
- pSer373 / SPAK (SPAK phosphorylation; 100 mg/kg): 0.67 and 0.54 and 0.58 and 0.5
- kinases of the 140 tested with >50% inhibition ([1]; 1 µM ZT-1a): only a single kinase
- share of the 140 kinases not inhibited by >70% ([1]; 1 µM ZT-1a vs DMSO control): 98%
- Adhesive removal time ([2]; Day 1): 15 seconds and 27 seconds and 70 seconds and 120 seconds and 28 seconds (2×) and 85 seconds
- Adhesive removal time ([2]; Day 3): 26 s and 16 s and 65 s and 29 s and 9 s and 41 s and 62 s
- Adhesive removal time ([2]; Day 5): 36 s and 27 s and 56 s and 35 s and 15 s and 28 s and 24 s
- Adhesive removal time ([2]; Day 7): 8 seconds (2×) and 14 seconds and 57 seconds and 19 seconds and 16 seconds and 28 seconds
- Adhesive removal time ([2]; Day -1 (baseline)): 25 seconds and 8 seconds and 7 seconds (2×) and 11 seconds and 13 seconds and 22 seconds
- adhesive contact and removal tests ([2]; ZT-1a 5.0 mg/kg, vs vehicle-control mice): significantly improved motor function
- pSPAK/SPAK band intensity ratio (SPAK pSer373; Hypotonic low Cl, 1 uM): 0.189 and 0.226 and 0.157 and 0.173
- pSPAK/SPAK band intensity ratio (SPAK pSer373; Hypotonic low Cl, 3 uM): 0.081 and 0.093 and 0.086 and 0.0963
- pSPAK/SPAK band intensity ratio (SPAK pSer373; Hypotonic low Cl, 10 uM): 0.038 and 0.034 and 0.031 and 0.043
- pSPAK/SPAK band intensity ratio (SPAK pSer373; Isotonic control, 1 uM): 0.113 and 0.123 and 0.106 and 0.12
- pSPAK/SPAK band intensity ratio (SPAK pSer373; Isotonic control, 3 uM): 0.067 and 0.051 and 0.053 and 0.059
- pSPAK/SPAK band intensity ratio (SPAK pSer373; Isotonic control, 10 uM): 0.031 and 0.034 and 0.024 and 0.028
- inhibition of SPAK phosphorylation at Ser373 (SPAK pSer373; ~3–10 µM ZT-1a, n = 3): 70 ± 3.8%
- mortality in naive mice (C57BL/6J mice; 25 mg/kg i.p.): No mortality
- survival of ischemic stroke mice (C57BL/6J mice; 25 mg/kg i.p., Kaplan–Meier, n = 6): survived longer than Closantel-treated mice
- median survival of ischemic stroke mice (C57BL/6J mice; C57BL/6J, mouse, in vivo): 4 days
- decrease of post-IVH CSF hypersecretion [3]: ~ 2.3 fold
- % residual kinase activity (AMPK (hum); 1 µM): 126±4%
- % residual kinase activity (AMPK (hum); 10 µM): 108±4%
- T906/KCC2 band intensity ratio [4, 5]: 0.214 and 0.239 and 0.189 and 0.203
- T906/KCC2 band intensity ratio [4, 6]: 0.058 and 0.074 and 0.03 and 0.063
- T906/KCC2 band intensity ratio [4, 7]: 0.03 and 0.034 and 0.02 and 0.026
- T906/KCC2 band intensity ratio [4, 8]: 0.356 and 0.264 and 0.316 and 0.279
- T906/KCC2 band intensity ratio [4, 9]: 0.166 and 0.176 and 0.153 and 0.142
- T906/KCC2 band intensity ratio [4, 10]: 0.065 and 0.041 and 0.054 and 0.049

SMILES: Cc1cc(C(C#N)c2ccc(Cl)cc2)c(Cl)cc1NC(=O)c1cc(I)cc(I)c1O (stereo not shown) [Closantel, reference compound]
- pSer373 / SPAK (SPAK phosphorylation; 50 mg/kg): 0.54 and 0.68 and 0.62 and 0.52
- pSPAK/SPAK band intensity ratio (SPAK pSer373; Hypotonic low Cl, 1 uM): 0.156 and 0.123 and 0.1673 and 0.133
- pSPAK/SPAK band intensity ratio (SPAK pSer373; Hypotonic low Cl, 3 uM): 0.102 and 0.11 and 0.1063 and 0.108
- pSPAK/SPAK band intensity ratio (SPAK pSer373; Hypotonic low Cl, 10 uM): 0.032 and 0.058 and 0.043 and 0.041
- pSPAK/SPAK band intensity ratio (SPAK pSer373; Isotonic control, 1 uM): 0.118 and 0.131 and 0.126 and 0.122
- pSPAK/SPAK band intensity ratio (SPAK pSer373; Isotonic control, 3 uM): 0.056 and 0.061 and 0.054 and 0.063
- pSPAK/SPAK band intensity ratio (SPAK pSer373; Isotonic control, 10 uM): 0.039 and 0.027 and 0.033 and 0.031
- mortality of ischemic stroke mice (C57BL/6J mice; 25 mg/kg): 100%
- mortality in naive mice (C57BL/6J mice; 25 mg/kg i.p.): No mortality
- time by which all ischemic stroke mice died (C57BL/6J mice; 25 mg/kg i.p., tMCAO): ≤ 2 days
- median survival of ischemic stroke mice (C57BL/6J mice; 25 mg/kg i.p., tMCAO, n = 6): 1 days
- Days elapsed (C57BL/6J mice; MCAO mice): 1 days and 2 days
- Days elapsed (C57BL/6J mice; mice without MCAO): 7 days
- toxicity in mice at higher doses (C57BL/6J mice; ~25 mg/kg): toxicity
- T906/KCC2 band intensity ratio [4, 5]: 0.202 and 0.217 and 0.223 and 0.249
- T906/KCC2 band intensity ratio [4, 6]: 0.23 and 0.214 and 0.223 and 0.251
- T906/KCC2 band intensity ratio [4, 7]: 0.186 and 0.19 and 0.176 and 0.21
- T906/KCC2 band intensity ratio [4, 8]: 0.244 and 0.296 and 0.316 and 0.327
- T906/KCC2 band intensity ratio [4, 9]: 0.256 and 0.224 and 0.253 and 0.285
- T906/KCC2 band intensity ratio [4, 10]: 0.18 and 0.181 and 0.194 and 0.22
